Here are results for two compounds from article PMC3105096, “Construction of Chimeric Dual-Chain Avidin by Tandem Fusion of the Related Avidins” (PLoS ONE, 2011).

Assay [1] has as its target T1, AVR4(C122S); also printed AVR4(C112S) (Gallus gallus, UniProt P56734, C146S).
T1 construct: recombinant AVR4 with cysteine-to-serine change, tetramer
Description: SDS-PAGE thermostability of acylated protein. The class given is binding. The settings on record: thermal shift of subunit dissociation; Tr without biotin 90 °C; 140 µM D-biotin. An excerpt:
SDS-PAGE thermostability of acylated protein on AVR4(C122S); also printed AVR4(C112S)

Assay [2] concerns the target chimeric dual-chain avidin dcAVD/AVR4 (tandem fusion of circularly permuted avidin cp54 and circularly permuted AVR4 cp65) (chicken). Description: SEC; Superdex 75 10/300 GL, 50 ug protein in 50 mM NaPO4 pH 7, 650 mM NaCl; column calibrated with Bio-Rad standards 1.5-67 kDa; dimer of the dual-chain polypeptide (pseudotetramer). For orientation: In gel filtration, larger molecules generally elute earlier.

T1 sequence (P56734 25-150 C146S): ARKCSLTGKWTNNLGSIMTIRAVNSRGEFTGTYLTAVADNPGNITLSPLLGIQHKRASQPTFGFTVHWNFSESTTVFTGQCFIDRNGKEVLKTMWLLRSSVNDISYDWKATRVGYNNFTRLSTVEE

As for `O=C(O)CCCC[C@@H]1SC[C@@H]2NC(=O)N[C@@H]21` [D-biotin], the “SDS-PAGE / Tr ^(+BTN) (°C)” value in assay [1] was found to be 95 °C.
The term stoichiometry N denotes the number of molecules, sites or subunits per partner or assembly. “chimeric dual-chain avidin dcAVD/AVR4 (tandem fusion of circularly permuted avidin cp54 and circularly permuted AVR4 cp65)” showed a stoichiometry N in assay [2] of 2.
